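In this assay, cells in 96-well plates receive the compound at five concentrations for 48 hours. Endpoints are linearly interpolated between the surrounding concentrations. The concentration for 50% growth inhibition is given as GI50. Definition used: TGI = concentration required for complete inhibition of growth.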
Assays:
Experiment in all cases: NCI tumour cell line growth inhibition, 48 h
SW-620 colon = tested on: SW-620 colon
KM12 colon = tested on: KM12 colon
SF-539 CNS = tested on: SF-539 CNS
NCI-H522 lung = tested on: NCI-H522 lung
SK-OV-3 ovarian = tested on: SK-OV-3 ovarian
EKVX NSCLC = tested on: EKVX NSCLC
CAKI-1 renal = tested on: CAKI-1 renal
SNB-75 CNS = tested on: SNB-75 CNS
RXF 393 renal = tested on: RXF 393 renal
BT-549 breast = tested on: BT-549 breast

Structure (SMILES): COC(=O)/C=C(C)/C=C/c1cc(C(C)=O)c(C)o1
- TGI (SW-620 colon): > 100 µM
- TGI (KM12 colon): > 100 µM
- TGI (SF-539 CNS): > 100 µM
- TGI (NCI-H522 lung): > 100 µM
- TGI (SK-OV-3 ovarian): > 100 µM
- TGI (EKVX NSCLC): > 100 µM
- TGI (CAKI-1 renal): > 100 µM
- TGI (SNB-75 CNS): > 100 µM

Structure (SMILES): N/N=C(\CC1OC(=O)c2ccccc21)c1ccco1 (stereo not given)
- TGI (SW-620 colon): > 100 µM
- TGI (KM12 colon): > 100 µM
- TGI (SF-539 CNS): > 100 µM
- TGI (NCI-H522 lung): > 100 µM
- TGI (SK-OV-3 ovarian): > 100 µM
- TGI (EKVX NSCLC): > 100 µM
- TGI (CAKI-1 renal): > 100 µM
- TGI (RXF 393 renal): > 100 µM
- TGI (SNB-75 CNS): > 100 µM

Structure (SMILES): CC(=O)[CH-]C(=O)c1ccccc1.CC(=O)[CH-]C(=O)c1ccccc1.CC(=O)[CH-]C(=O)c1ccccc1.[Tl+3]
- GI50 (SW-620 colon): 57.5 µM
- TGI (SW-620 colon): > 100 µM
- GI50 (KM12 colon): 42.8 µM
- TGI (KM12 colon): > 100 µM
- GI50 (SF-539 CNS): 36.9 µM
- TGI (SF-539 CNS): > 100 µM
- GI50 (NCI-H522 lung): > 54.7 µM
- TGI (NCI-H522 lung): > 100 µM
- GI50 (SK-OV-3 ovarian): > 61.8 µM
- TGI (SK-OV-3 ovarian): > 100 µM
- GI50 (EKVX NSCLC): 31.8 µM
- TGI (EKVX NSCLC): > 100 µM
- GI50 (CAKI-1 renal): 75 µM
- TGI (CAKI-1 renal): > 100 µM
- GI50 (RXF 393 renal): 56.2 µM
- TGI (RXF 393 renal): > 100 µM
- GI50 (SNB-75 CNS): 48.1 µM
- TGI (SNB-75 CNS): > 100 µM

Structure (SMILES): Cn1nc(-c2ccccc2)c(N=[N+]=[N-])cc1=O
- TGI (SW-620 colon): > 100 µM
- TGI (KM12 colon): > 100 µM
- TGI (SF-539 CNS): > 100 µM
- TGI (NCI-H522 lung): > 100 µM
- TGI (SK-OV-3 ovarian): > 100 µM
- TGI (EKVX NSCLC): > 100 µM
- TGI (CAKI-1 renal): > 100 µM
- TGI (RXF 393 renal): > 100 µM

Structure (SMILES): S=c1[nH]c(=S)c2sc(=S)n(-c3ccccc3)c2[nH]1
- TGI (SW-620 colon): > 100 µM
- TGI (KM12 colon): > 100 µM
- TGI (SF-539 CNS): > 100 µM
- TGI (NCI-H522 lung): > 100 µM
- TGI (SK-OV-3 ovarian): > 100 µM
- TGI (EKVX NSCLC): > 100 µM
- TGI (CAKI-1 renal): > 100 µM
- TGI (RXF 393 renal): > 100 µM
- TGI (SNB-75 CNS): > 100 µM

Structure (SMILES): O=[N+]([O-])c1ccc(Sc2c3ccccc3nc3ccccc23)cc1
- TGI (SW-620 colon): > 100 µM
- TGI (KM12 colon): > 100 µM
- TGI (SF-539 CNS): > 100 µM
- TGI (NCI-H522 lung): > 100 µM
- TGI (EKVX NSCLC): > 100 µM
- TGI (CAKI-1 renal): > 100 µM
- TGI (RXF 393 renal): > 100 µM
- TGI (SNB-75 CNS): > 100 µM

Structure (SMILES): NCCCC(=O)Nc1ccncc1
- GI50 (SW-620 colon): > 100 µM
- TGI (SW-620 colon): > 100 µM
- GI50 (KM12 colon): > 100 µM
- TGI (KM12 colon): > 100 µM
- GI50 (SF-539 CNS): > 100 µM
- TGI (SF-539 CNS): > 100 µM
- GI50 (BT-549 breast): > 100 µM
- TGI (BT-549 breast): > 100 µM
- GI50 (NCI-H522 lung): > 100 µM
- TGI (NCI-H522 lung): > 100 µM
- GI50 (SK-OV-3 ovarian): > 100 µM
- TGI (SK-OV-3 ovarian): > 100 µM
- GI50 (EKVX NSCLC): > 100 µM
- TGI (EKVX NSCLC): > 100 µM
- GI50 (CAKI-1 renal): > 100 µM
- TGI (CAKI-1 renal): > 100 µM
- GI50 (SNB-75 CNS): 60 µM
- TGI (SNB-75 CNS): > 100 µM

Structure (SMILES): CC(=O)OCSc1ncnc2c1ncn2CN1CCOCC1
- TGI (SW-620 colon): > 100 µM
- TGI (KM12 colon): > 100 µM
- TGI (SF-539 CNS): > 100 µM
- TGI (NCI-H522 lung): > 100 µM
- TGI (SK-OV-3 ovarian): > 100 µM
- TGI (EKVX NSCLC): > 100 µM
- TGI (CAKI-1 renal): > 100 µM
- TGI (RXF 393 renal): > 100 µM
- TGI (SNB-75 CNS): > 100 µM

Structure (SMILES): CC(C)=CC(=O)Oc1ccc([N+](=O)[O-])cc1
- TGI (SW-620 colon): > 100 µM
- TGI (KM12 colon): > 100 µM
- TGI (SF-539 CNS): > 100 µM
- TGI (NCI-H522 lung): 14.8 µM
- TGI (SK-OV-3 ovarian): > 100 µM
- TGI (EKVX NSCLC): > 100 µM
- TGI (CAKI-1 renal): 53.8 µM
- TGI (RXF 393 renal): > 100 µM
- TGI (SNB-75 CNS): > 100 µM

Structure (SMILES): N#CCc1ccc(C(C#N)/C(CCCC(=O)Nc2cccc([N+](=O)[O-])c2)=N\NC(=O)NN)cc1 (stereo not given)
- TGI (SW-620 colon): > 100 µM
- TGI (KM12 colon): > 100 µM
- TGI (SF-539 CNS): > 100 µM
- TGI (NCI-H522 lung): > 100 µM
- TGI (SK-OV-3 ovarian): > 100 µM
- TGI (EKVX NSCLC): > 100 µM
- TGI (CAKI-1 renal): > 100 µM
- TGI (RXF 393 renal): > 100 µM
- TGI (SNB-75 CNS): > 100 µM

Source: PubChem BioAssay (NCI)
